Reference: publication PMC8279416, “Structural Fine-Tuning of Desmuramylpeptide NOD2 Agonists Defines Their In Vivo Adjuvant Activity” (Journal of Medicinal Chemistry, 2021)

Experiments:
[1] = tested on: CD4+ T cells (OT II) cocultured with BMDCs; assay: BMDC antigen presentation assay with ovalbumin-specific CD4+ T cells; assay type: cell-based, mouse; details: ovalbumin 50 μg/mL, 72 h coculture
Procedure: To evaluate the adjuvant potential of the two most-promising desmuramylpeptides, 68 and 75, in terms of their effects on DC-mediated activation of CD4^+ and CD8^+ T cells, we used an in vitro antigen-presentation assay with C57BL/6 mouse bone-marrow-derived DCs (BMDCs). Following stimulation with 68 and 75 (1 or 10 μM) in the presence of ovalbumin soluble protein (50 μg/mL), BMDCs were cocultured with carboxyfluorescein succinimidyl ester (CFSE)-labeled naive ovalbumin-specific CD4^+ or CD8^+ T cells, which were isolated from splenocytes of OT II and OT I transgenic mice, respectively. After 3 days of coculture, CD25 (α subunit of IL-2 receptor)[108] expression was determined, along with the CFSE dilution, as markers of T-cell activation and proliferation, respectively. Furthermore, we also examined how this desmuramylpeptide-induced priming of T cells affected the secreted cytokine profiles in BMDC/T-cell cocultures.
CD4^+ and CD8^+ T cells were purified from splenocytes of OT II and OT I transgenic mice using CD4^+ and CD8^+ T cell isolation kits (Miltenyi Biotec, Germany), according to manufacturer instructions. Purified T cells were stained with CFSE (Invitrogen, Carlsbad, CA, U.S.A.) and washed. Then, 5 × 10^4 T cells were mixed with 1 × 10^4 BMDCs per well (pretreated with desmuramylpeptides [1 or 10 μM] and 50 μg/mL ovalbumin [InvivoGen, San Diego, CA, U.S.A.] for 18 h, and then washed). […] The cells were stained with Fixable viability dye eFluor 780 (eBioscience, Thermo Fisher Scientific, MA, U.S.A.), anti-Thy1.2-PE-Cy7 antibodies (Biolegend, San Diego, CA, U.S.A.), anti-CD8-eFluor450 antibodies (eBioscience), anti-CD4-eFluor450 antibodies (eBioscience), and anti-CD25-APC antibodies (Biolegend) and analyzed using a Beckman Coulter Cytoflex S flow cytometer (CA, U.S.A.) and FlowJo software (Tree Star, Inc., Ashland, OR, U.S.A.). Live Thy1.2^+/CD4^+ and Thy1.2^+/CD8^+ were evaluated for CFSE dilution and CD25 expression. […] Statistical significance was determined by one-way ANOVA followed by Dunnett’s multiple comparisons test.

[2] = tested on: K562 chronic myelogenous leukemia cells; assay: PBMC cytotoxicity assay against K562 cells (flow cytometry); assay type: cell-based
Procedure: (§1) In the present study, we examined these desmuramylpeptides in terms of potentiation of the cytotoxic activity of the PBMCs against cancer cells. To this end, we used a previously described flow-cytometry-based cytotoxicity assay where PBMCs are co-incubated with fluorescently labeled cancer cells.[89] As indicated above, the NOD2-mediated NK cell activity originates from both the direct effects of NOD2 agonists on NK cells and the indirect activation through cytokine release by other NOD2-responsive cells, including monocytes. Thus, we used the whole PBMC population as the effector cells, rather than isolated NK cells, to provide conditions that would be closer to the in vivo environment, wherein the immune responses can be reinforced by interactions between the distinct immune cell subpopulations. Two malignant cell lines were used as the target cells in a 40:1 effector to target cell ratio: MEC1 B-chronic lymphocytic leukemia cells, and K562 chronic myelogenous leukemia cells. The K562 cells are considered a “classic” NK cell target, as they lack the expression of major histocompatibility complex (MHC) class I that is required for NK cell inhibition.[90]
(§2) The PBMC cytotoxicity assays using K562 and MEC1 cells were performed as described previously, with some modifications.[89] PBMCs were seeded (4 × 10^5 cells/well) in 96-well plates and treated with compounds (0.1–10 μM) or vehicle (0.1% DMSO) for 18 h. The K562 or MEC1 cells were stained with CFSE (Invitrogen, Carlsbad, CA, U.S.A.), washed twice with complete medium, and added (1 × 10^4 cells/well) to pretreated PBMCs for a final effector cell to target tumor cell ratio of 40:1. After a 4 h co-incubation (37 °C, 5% CO2), cells were stained with Sytox blue dead cell stain (Invitrogen) and analyzed using an Attune NxT flow cytometer (Thermo Fisher Scientific, Waltham, MA, U.S.A.) and the FlowJo software (Tree Star, Inc., Ashland, OR, U.S.A.). Cells that were positive for both CFSE and Sytox blue were defined as dead K562 and MEC1 cells. PBMCs alone and the CFSE-labeled cancer cells alone were also treated with the compounds at the same concentrations and stained with Sytox blue to determine any direct cytotoxicity of the compounds toward the PBMCs and cancer cells. The experiments were run in duplicate and repeated as three independent biological replicates. Statistical significance was determined by one-way ANOVA followed with Dunnett’s multiple comparisons test.

[3] = tested on: MEC1 B-chronic lymphocytic leukemia cells; assay: PBMC cytotoxicity assay against MEC1 cells (flow cytometry); assay type: cell-based
Procedure: as §1
as §2, with “Cells that were positive for both CFSE and Sytox blue were defined as dead K562 and MEC1 cells. PBMCs alone and the CFSE-labeled cancer cells alone were also treated with the compounds at the same concentrations and stained with Sytox blue to determine any direct cytotoxicity of the compounds toward the PBMCs and cancer cells. The experiments were run in duplicate and repeated as three independent biological replicates.” left out

[4] = 10 μM, CD25 expression and CFSE dilution
[5] = 10 μM, 18 h pretreatment, 4 h co-incubation, 40:1

SMILES | BMDC-mediated CD4+ T-cell activation and proliferation ([1]; 1 μM) | BMDC-mediated CD4+ T-cell activation and proliferation [1, 4] | Boost to the cytotoxicity of PBMCs against K562 cells [2, 5] | Boost to the cytotoxicity of PBMCs against MEC1 cells [3, 5] | Boost to the cytotoxicity of PBMCs against K562 cells ([2]; 100 nM) | Boost to the cytotoxicity of PBMCs against K562 cells ([2]; 1 μM) | Boost to the cytotoxicity of PBMCs against MEC1 cells ([3]; 100 nM)
COc1cc(/C=C/C(=O)NCC(=O)N[C@H](C(=O)N[C@H](CCC(=O)OC2CCCC2)C(=O)OC2CCCC2)C(C)C)ccc1O [Compound 68, Dicyclopentyl ((E)-3-(4-Hydroxy-3-methoxyphenyl)acryloyl)glycyl-L-valyl-D-glutamate] | also showed this effect | significantly enhanced | – | – | – | – | –
CCCCCCCCCCCCCCCCCC(=O)Oc1ccc(/C=C/C(=O)NCC(=O)N[C@H](C(=O)N[C@H](CCC(=O)OCC)C(=O)OCC)[C@@H](C)O)cc1OC [Compound 81, Diethyl ((E)-3-(3-Methoxy-4-(stearoyloxy)phenyl)acryloyl)glycyl-L-threonyl-D-glutamate] | – | – | devoid of activity | devoid of activity | – | – | –
CCCCCCCCCCCCCCCCCC(=O)Oc1ccc(/C=C/C(=O)NCC(=O)N[C@H](C(=O)N[C@H](CCC(=O)OCC)C(=O)OCC)C(C)C)cc1OC [Compound 75, Diethyl ((E)-3-(3-Methoxy-4-(stearoyloxy)phenyl)acryloyl)glycyl-L-valyl-D-glutamate] | – | significantly enhanced | significant boost | significant boost | no effects were seen against either cell line | still significant | no effects were seen against either cell line
